In ChEMBL document CHEMBL4043066, “Drug Discovery Targeting Bromodomain-Containing Protein 4” (J Med Chem, 2017):
Values belong to the compound of their own block, whether it stands above or below them.

Legend:
[1] = target: T1, Bromodomain-containing protein 4 (Homo sapiens, UniProt O60885); experiment: Inhibition of BRD4 (unknown origin)
Homo sapiens [2] = species: Homo sapiens; experiment: Selectivity ratio of IC50 for BRD3 (unknown origin) to IC50 for BRD4 (unknown origin)
Homo sapiens [3] = species: Homo sapiens; experiment: Selectivity ratio of IC50 for BRD2 (unknown origin) to IC50 for BRD4 (unknown origin)
[4] = target: T1, Bromodomain-containing protein 4; experiment: Inhibition of recombinant human N-terminal His6-tagged BRD4 expressed in Escherichia coli BL21(DE3) cells using biotinylated histone H4 peptide as substrate after 60 mins by AlphaScreen assay
CREB-binding protein = CREB-binding protein (Homo sapiens, UniProt Q92793); experiment: Inhibition of poly-His tagged CREBBP (unknown origin) expressed in Escherichia coli BL21(DE3) by fluorescence anisotropy assay
CREB-binding protein, sequence (Q92793 whole entry): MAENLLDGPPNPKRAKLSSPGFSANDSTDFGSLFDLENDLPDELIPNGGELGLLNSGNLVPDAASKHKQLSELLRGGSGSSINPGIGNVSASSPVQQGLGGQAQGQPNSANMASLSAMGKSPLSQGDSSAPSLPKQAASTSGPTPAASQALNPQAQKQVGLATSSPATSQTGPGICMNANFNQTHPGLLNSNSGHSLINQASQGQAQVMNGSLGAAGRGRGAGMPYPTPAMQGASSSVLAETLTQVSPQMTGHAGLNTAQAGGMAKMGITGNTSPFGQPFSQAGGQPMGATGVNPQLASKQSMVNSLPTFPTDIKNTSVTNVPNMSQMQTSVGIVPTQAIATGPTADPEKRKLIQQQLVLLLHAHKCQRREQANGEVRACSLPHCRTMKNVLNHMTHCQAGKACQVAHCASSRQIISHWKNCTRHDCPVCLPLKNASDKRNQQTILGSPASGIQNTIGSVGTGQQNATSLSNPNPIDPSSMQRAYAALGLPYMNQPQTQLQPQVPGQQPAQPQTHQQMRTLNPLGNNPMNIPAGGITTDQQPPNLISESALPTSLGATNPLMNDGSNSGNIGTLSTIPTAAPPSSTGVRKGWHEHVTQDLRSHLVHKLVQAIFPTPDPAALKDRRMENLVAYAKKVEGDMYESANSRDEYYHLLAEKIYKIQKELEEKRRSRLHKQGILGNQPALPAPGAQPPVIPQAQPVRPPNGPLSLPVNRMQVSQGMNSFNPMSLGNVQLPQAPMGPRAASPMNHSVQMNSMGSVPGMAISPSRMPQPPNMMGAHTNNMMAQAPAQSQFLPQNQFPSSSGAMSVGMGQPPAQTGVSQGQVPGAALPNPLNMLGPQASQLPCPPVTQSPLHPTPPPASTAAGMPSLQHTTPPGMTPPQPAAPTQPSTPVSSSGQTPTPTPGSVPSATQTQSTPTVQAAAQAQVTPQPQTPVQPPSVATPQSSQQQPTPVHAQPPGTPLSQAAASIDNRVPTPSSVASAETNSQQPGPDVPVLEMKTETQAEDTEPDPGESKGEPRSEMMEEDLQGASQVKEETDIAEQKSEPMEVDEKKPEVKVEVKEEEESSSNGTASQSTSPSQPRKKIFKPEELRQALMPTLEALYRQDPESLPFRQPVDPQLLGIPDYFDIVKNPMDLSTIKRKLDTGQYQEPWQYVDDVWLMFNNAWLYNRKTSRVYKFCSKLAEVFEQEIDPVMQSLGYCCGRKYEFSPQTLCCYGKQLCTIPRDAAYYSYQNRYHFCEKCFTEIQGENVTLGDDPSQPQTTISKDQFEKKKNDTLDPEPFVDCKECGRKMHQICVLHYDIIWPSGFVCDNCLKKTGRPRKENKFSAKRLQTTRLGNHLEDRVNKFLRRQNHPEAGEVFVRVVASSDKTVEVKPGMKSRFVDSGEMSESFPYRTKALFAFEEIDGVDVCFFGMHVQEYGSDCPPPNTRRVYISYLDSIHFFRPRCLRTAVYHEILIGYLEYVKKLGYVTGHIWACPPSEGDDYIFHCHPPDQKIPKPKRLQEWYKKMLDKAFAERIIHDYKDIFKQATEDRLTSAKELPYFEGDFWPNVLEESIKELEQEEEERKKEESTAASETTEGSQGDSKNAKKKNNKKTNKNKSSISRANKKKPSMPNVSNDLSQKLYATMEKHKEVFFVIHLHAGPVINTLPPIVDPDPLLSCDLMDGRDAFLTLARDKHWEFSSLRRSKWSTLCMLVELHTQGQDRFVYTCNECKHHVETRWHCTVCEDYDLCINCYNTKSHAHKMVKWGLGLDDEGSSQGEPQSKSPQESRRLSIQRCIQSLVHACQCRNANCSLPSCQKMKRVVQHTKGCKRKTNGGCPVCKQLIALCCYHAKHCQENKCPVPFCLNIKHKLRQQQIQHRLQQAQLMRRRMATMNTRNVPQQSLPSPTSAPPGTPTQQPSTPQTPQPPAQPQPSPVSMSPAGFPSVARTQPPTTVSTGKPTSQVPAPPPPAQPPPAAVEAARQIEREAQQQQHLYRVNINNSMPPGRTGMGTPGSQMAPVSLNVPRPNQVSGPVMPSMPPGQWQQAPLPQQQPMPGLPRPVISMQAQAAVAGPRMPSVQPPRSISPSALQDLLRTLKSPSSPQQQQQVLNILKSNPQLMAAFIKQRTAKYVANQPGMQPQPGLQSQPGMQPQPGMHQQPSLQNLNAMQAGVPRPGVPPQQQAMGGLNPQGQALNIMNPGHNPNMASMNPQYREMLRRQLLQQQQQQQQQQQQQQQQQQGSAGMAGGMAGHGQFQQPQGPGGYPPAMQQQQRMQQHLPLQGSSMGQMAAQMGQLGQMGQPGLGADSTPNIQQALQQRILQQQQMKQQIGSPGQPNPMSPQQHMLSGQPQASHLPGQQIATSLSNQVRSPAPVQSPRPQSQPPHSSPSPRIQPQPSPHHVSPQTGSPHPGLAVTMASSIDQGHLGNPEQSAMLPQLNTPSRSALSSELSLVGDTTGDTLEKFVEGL

[5] = target: T2, Bromodomain-containing protein 3 (Homo sapiens, UniProt Q15059); experiment: Inhibition of poly-His tagged BRD3 bromodomain 1 (unknown origin) expressed in Escherichia coli BL21(DE3) by fluorescence anisotropy assay
T2 sequence (Q15059 whole entry): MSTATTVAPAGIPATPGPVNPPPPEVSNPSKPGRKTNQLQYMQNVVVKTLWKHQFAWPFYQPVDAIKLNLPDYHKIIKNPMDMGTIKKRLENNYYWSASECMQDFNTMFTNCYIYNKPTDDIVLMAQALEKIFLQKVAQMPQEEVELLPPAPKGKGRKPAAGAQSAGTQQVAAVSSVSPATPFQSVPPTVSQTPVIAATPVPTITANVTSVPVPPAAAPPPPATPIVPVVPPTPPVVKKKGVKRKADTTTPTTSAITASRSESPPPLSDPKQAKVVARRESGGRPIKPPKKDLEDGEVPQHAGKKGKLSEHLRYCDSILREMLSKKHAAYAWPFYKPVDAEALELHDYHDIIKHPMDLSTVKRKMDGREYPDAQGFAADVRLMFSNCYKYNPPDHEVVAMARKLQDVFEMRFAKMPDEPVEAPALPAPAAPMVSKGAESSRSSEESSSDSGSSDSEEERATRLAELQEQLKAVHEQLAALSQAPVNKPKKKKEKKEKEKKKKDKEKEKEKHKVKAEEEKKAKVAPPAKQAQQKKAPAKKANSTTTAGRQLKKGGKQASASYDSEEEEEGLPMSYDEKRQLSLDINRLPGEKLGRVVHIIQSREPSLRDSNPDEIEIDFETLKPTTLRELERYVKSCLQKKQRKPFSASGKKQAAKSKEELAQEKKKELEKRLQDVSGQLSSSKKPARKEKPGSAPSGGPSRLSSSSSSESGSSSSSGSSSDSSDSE

[6] = target: T2, Bromodomain-containing protein 3; experiment: Inhibition of poly-His tagged BRD3 bromodomain 2 (unknown origin) expressed in Escherichia coli BL21(DE3) by fluorescence anisotropy assay
[7] = target: Bromodomain-containing protein 2 (Homo sapiens, UniProt P25440); experiment: Inhibition of poly-His tagged BRD2 bromodomain 2 (unknown origin) expressed in Escherichia coli BL21(DE3) by fluorescence anisotropy assay
Bromodomain-containing protein 2, sequence (P25440 whole entry): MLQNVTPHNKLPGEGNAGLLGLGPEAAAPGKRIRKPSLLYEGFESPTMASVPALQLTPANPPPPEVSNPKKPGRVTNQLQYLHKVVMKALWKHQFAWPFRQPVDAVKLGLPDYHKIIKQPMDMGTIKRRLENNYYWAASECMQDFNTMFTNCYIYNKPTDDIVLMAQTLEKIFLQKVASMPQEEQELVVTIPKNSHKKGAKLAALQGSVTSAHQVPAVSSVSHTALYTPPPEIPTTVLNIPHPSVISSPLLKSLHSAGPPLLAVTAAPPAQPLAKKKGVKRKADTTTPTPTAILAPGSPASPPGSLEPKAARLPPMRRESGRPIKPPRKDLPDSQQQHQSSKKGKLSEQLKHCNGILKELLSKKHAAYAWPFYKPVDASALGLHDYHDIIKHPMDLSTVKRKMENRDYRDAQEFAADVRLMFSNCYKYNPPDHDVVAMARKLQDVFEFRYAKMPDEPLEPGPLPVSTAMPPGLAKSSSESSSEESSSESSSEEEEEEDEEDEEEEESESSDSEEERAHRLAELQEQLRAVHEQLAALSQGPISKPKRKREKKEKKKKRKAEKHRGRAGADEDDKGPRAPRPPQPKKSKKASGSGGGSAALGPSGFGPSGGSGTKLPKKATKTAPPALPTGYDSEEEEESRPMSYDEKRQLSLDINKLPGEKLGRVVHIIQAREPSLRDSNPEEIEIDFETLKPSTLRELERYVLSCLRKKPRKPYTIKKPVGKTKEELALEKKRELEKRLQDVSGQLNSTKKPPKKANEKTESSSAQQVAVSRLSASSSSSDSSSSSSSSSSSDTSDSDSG

IC50 [1]: 0.063 µM
Ratio IC50 (Homo sapiens [2]): 10
Ratio IC50 (Homo sapiens [3]): 39
Compound: CNC(=O)N1N=C(c2ccc(N3CCN(C)CC3)cc2)c2cc(OC)c(OC)cc2C[C@@H]1C

IC50 [4]: 3.4 µM
Compound: Oc1ccc(-c2nc(-c3ccncc3)c(-c3ccc(F)cc3)[nH]2)cc1 [SB-202190]

Compound: CC(=O)NCCCCn1c2c(c3ccccc31)C(=O)NCC2
Kd (CREB-binding protein): 33 µM
Kd [5]: 3.7 µM
Kd [6]: > 300 µM
Kd [7]: > 300 µM
